Results on 38 molecules are retold here after US9029384B2, “Phosphatidylinositol 3-kinase inhibitors” (Gilead Calistoga LLC, priority 2012, dated 2015).

By IC50 is commonly meant the midpoint of a concentration-inhibition curve.

Some results are limits rather than exact numbers.

In the assay the target is T1, PI3Kδ (Homo sapiens, UniProt O00329).
T1 construct: made in house
T1 sequence (O00329 whole entry): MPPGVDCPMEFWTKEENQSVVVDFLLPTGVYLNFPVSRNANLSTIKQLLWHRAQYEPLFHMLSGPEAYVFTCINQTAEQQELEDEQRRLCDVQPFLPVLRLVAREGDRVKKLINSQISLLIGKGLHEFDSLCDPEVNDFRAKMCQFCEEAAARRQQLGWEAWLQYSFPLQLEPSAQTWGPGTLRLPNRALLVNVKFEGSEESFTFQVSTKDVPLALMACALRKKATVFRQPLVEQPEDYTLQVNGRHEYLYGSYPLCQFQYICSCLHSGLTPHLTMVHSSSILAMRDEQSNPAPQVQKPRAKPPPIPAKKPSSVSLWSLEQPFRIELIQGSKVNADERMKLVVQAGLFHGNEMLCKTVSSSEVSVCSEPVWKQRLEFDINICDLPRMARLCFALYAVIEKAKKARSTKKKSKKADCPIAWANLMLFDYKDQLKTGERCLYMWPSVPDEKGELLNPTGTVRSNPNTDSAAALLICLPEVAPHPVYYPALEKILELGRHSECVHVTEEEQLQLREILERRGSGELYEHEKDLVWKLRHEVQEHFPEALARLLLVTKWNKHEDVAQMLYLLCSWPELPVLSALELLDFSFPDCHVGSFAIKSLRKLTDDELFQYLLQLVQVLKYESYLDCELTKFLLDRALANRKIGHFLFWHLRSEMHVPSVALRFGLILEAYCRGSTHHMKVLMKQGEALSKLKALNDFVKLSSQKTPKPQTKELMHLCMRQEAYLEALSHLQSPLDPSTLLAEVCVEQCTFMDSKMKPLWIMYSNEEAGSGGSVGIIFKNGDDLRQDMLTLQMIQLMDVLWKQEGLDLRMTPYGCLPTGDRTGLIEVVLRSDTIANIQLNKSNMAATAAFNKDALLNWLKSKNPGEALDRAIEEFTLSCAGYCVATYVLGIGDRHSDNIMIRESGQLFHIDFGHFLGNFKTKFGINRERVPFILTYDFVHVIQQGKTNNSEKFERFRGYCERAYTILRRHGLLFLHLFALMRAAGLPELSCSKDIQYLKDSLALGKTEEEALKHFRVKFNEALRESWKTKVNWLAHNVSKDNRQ
T1 sequence (P27986 whole entry partner): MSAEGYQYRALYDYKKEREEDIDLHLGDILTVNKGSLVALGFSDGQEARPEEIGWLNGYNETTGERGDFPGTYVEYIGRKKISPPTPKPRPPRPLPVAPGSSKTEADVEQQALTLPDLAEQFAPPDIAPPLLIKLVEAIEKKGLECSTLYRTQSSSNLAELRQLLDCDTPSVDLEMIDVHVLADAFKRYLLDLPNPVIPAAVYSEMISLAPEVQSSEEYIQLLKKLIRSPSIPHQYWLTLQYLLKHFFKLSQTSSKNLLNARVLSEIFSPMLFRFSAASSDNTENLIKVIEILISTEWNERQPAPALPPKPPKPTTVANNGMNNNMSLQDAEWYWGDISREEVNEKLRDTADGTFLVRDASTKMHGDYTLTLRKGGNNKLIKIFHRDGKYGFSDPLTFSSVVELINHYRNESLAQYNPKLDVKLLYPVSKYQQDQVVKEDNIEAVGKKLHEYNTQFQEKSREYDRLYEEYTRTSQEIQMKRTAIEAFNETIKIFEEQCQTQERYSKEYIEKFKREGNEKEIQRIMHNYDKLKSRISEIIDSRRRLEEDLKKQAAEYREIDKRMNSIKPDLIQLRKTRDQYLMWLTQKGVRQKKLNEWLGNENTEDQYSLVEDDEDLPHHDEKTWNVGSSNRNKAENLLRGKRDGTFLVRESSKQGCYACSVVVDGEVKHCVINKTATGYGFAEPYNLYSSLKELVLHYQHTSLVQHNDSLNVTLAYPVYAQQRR
The experiment in a line: Enzymatic activity of PI3K isoforms, TR-FRET assay (PIP3 formation). Format: biochemical. The following applies: PI3Kδ; TR-FRET, 2×Km ATP, 10 μM PIP2; read-out: IC50. From the text: Enzymatic Activity of PI3K Isoforms
The TR-FRET assay was used to monitor formation of the product 3,4,5-inositol triphosphate molecule (PIP3) as it competed with fluorescently labeled PIP3 for binding to the GRP-1 pleckstrin homology domain protein. An increase in […] product results in a decrease in TR-FRET signal as the labeled fluorophore is displaced from the GRP-1 protein binding site.
Class I PI3K isoforms were expressed and purified as heterodimeric recombinant proteins. All assay reagents and buffers for the TR-FRET assay were purchased from Millipore. […] After an assay reaction time of 30 minutes at 25° C., reactions were terminated with a final concentration of 10 mM EDTA, 10 nM labeled-PIP3, and 35 nM Europium labeled GRP-1 detector protein before reading TR-FRET on an Envision plate reader (Ex: 340 nm; Em: 615/665 nm; 100 μs delay and 500 μs read window).
Data are normalized based on a positive (1 uM wortmanin) and negative (DMSO) controls. The α, β, δ, and γ IC50 values were calculated from the fit of the dose-response curves to a four-parameter equation. IC50 are reported in units of nM.
IC50 values were obtained for all PI3K isoforms (α, β, δ, and γ), and Table 2 summarizes the IC50 data collected for PI3Kδ in this Example B1.
On to `CCC(Nc1nc(N)nc(N)c1C#N)c1nc2ccc(F)c(F)c2c(=O)n1-c1cc(F)cc(F)c1` (single isomer, unassigned) [Compound 30a], for which the half-inhibitory concentration (IC50) was in the range of 0.01 to 0.05 µM.
With `CC(Nc1nc(N)nc(N)c1C#N)c1nc2cccc(F)c2c(=O)n1-c1cc(F)cc(C#N)c1` (single isomer, unassigned) [Compound 32a], the IC50 was 0.01 to 0.05 µM.
Regarding `CC(Nc1nc(N)nc(N)c1C#N)c1nc2cccc(F)c2c(=O)n1-c1cc(F)cc(C(F)(F)F)c1` (single isomer, unassigned) [Compound 33a], the IC50 is more than 0.05 µM.
`CC(Nc1nc(N)nc(N)c1C#N)c1nc2c(C(F)(F)F)cccc2c(=O)n1-c1cc(F)cc(F)c1` (single isomer, unassigned) [Compound 34a]: the concentration for half-maximal inhibition (IC50) was more than 0.05 µM.
For the molecule `Cc1cccc2c(=O)n(-c3cccc(C(F)(F)F)c3)c(C(C)Nc3nc(N)nc(N)c3C#N)nc12` (single isomer, unassigned) [Compound 39a], the IC50 lay in the range of 0.01 to 0.05 µM.
For the molecule `CCC(Nc1nc(N)nc(N)c1C#N)c1nc2cccc(F)c2c(=O)n1-c1cccc(C(F)(F)F)c1` (single isomer, unassigned) [Compound 46a], the IC50 lay within 0.01 to 0.05 µM.
For the molecule `CC(Nc1nc(N)nc(N)c1C#N)c1nc2c(C(F)F)cccc2c(=O)n1-c1cc(F)cc(F)c1` (single isomer, unassigned) [Compound 57a], the IC50 lay within 0.01 to 0.05 µM.
Take `CCC(Nc1nc(N)nc(N)c1C#N)c1nc2cccc(F)c2c(=O)n1-c1cc(F)cc(C(F)F)c1` (single isomer, unassigned) [Compound 65a]: the IC50 lay in the range of 0.01 to 0.05 µM.
Turning to `COc1cccc2c(=O)n(-c3cc(F)cc(F)c3)c(C(C)Nc3nc(N)nc(N)c3C#N)nc12` (single isomer, unassigned) [Compound 68a], the IC50 was more than 0.05 µM.
As to `CCC(Nc1nc(N)nc(N)c1C#N)c1nc2c(F)cc(F)cc2c(=O)n1-c1cc(F)cc(F)c1` (single isomer, unassigned) [Compound 69a], the IC50 fell in the range of 0.01 to 0.05 µM.
Turning to `CC(Nc1nc(N)nc(N)c1C#N)c1nc2cc(F)c(F)cc2c(=O)n1-c1cc(F)cc(F)c1` (single isomer, unassigned) [Compound 79a], the 50% inhibitory concentration (IC50) fell in the range of 0.01 to 0.05 µM.
Regarding `Cc1ccc(F)c2c(=O)n(-c3cc(F)cc(C#N)c3)c(C(C)Nc3nc(N)nc(N)c3C#N)nc12` (single isomer, unassigned) [Compound 83a], the 50% inhibitory concentration (IC50) was 0.01 to 0.05 µM.
For `CC(Nc1nc(N)nc(N)c1C#N)c1nc2ccc(Cl)c(F)c2c(=O)n1-c1cc(F)cc(F)c1` (single isomer, unassigned) [Compound 85a], the IC50 was more than 0.05 µM.
As for `CCC(Nc1nc(N)nc(N)c1C#N)c1nc2ccc(Cl)c(F)c2c(=O)n1-c1cc(F)cc(F)c1` (single isomer, unassigned) [Compound 86a], the 50% inhibitory concentration (IC50) was more than 0.05 µM.
With `CC(Nc1nc(N)nc(N)c1C#N)c1nc2cccc(Cl)c2c(=O)n1-c1cc(C#N)cc(C#N)c1` (single isomer, unassigned) [Compound 87a] the figure was more than 0.05 µM.
As for `CC(Nc1nc(N)nc(N)c1C#N)c1nc2cccc(F)c2c(=O)n1-c1cc(C(F)(F)F)cc(C(F)(F)F)c1` (single isomer, unassigned) [Compound 88a], the half-maximal inhibitory concentration (IC50) is more than 0.05 µM.
Regarding `CC(Nc1nc(N)nc(N)c1S(C)(=O)=O)c1nc2cccc(Cl)c2c(=O)n1-c1cc(F)cc(F)c1` (single isomer, unassigned) [Compound 94a], the 50% inhibitory concentration (IC50) is more than 0.05 µM.
With `CCc1cccc2c(=O)n(-c3cc(F)cc(F)c3)c(C(C)Nc3nc(N)nc(N)c3C#N)nc12` (single isomer, unassigned) [Compound 103a], the concentration for half-maximal inhibition (IC50) lay in the range of 0.01 to 0.05 µM.
Turning to `CCC(Nc1nc(N)nc(N)c1Cl)c1nc2cccc(F)c2c(=O)n1-c1cc(F)cc(F)c1` (single isomer, unassigned) [Compound 105a], the concentration for half-maximal inhibition (IC50) was more than 0.05 µM.
Regarding `COc1cccc(-n2c(C(C)Nc3nc(N)nc(N)c3C#N)nc3cccc(Cl)c3c2=O)c1C` (single isomer, unassigned) [Compound 109a-1], the half-maximal inhibitory concentration (IC50) was in the range of 0.01 to 0.05 µM.
Regarding `COc1cc(F)cc(-n2c(C(C)Nc3nc(N)nc(N)c3C#N)nc3cccc(Cl)c3c2=O)c1C` (single isomer, unassigned) [Compound 110a-1], the IC50 was more than 0.05 µM.
As to `COc1cc(F)cc(-n2c(C(C)Nc3nc(N)nc(N)c3C#N)nc3cccc(Cl)c3c2=O)c1C` (single isomer, unassigned) [Compound 110a-2], the IC50 lay within 0.001 to 0.01 µM.
On to `CC(Nc1nc(N)nc(N)c1C#N)c1nc2cccc(C#N)c2c(=O)n1-c1cc(F)cc(C#N)c1` (single isomer, unassigned) [Compound 113a], for which the IC50 was more than 0.05 µM.
Regarding `CC(Nc1nc(N)nc(N)c1C#N)c1nc2cccc(F)c2c(=O)n1-c1cc(Cl)cc(C(F)F)c1` (single isomer, unassigned) [Compound 114a], the concentration for half-maximal inhibition (IC50) is more than 0.05 µM.
With `CC(Nc1nc(N)nc(N)c1C#N)c1nc2cccc(F)c2c(=O)n1-c1cc(C(F)F)cc(C(F)F)c1` (single isomer, unassigned) [Compound 118a], the IC50 is more than 0.05 µM.
The value for `CC(Nc1nc(N)nc(N)c1C#N)c1nc2cccc(Br)c2c(=O)n1-c1cccc(F)c1` (single isomer, unassigned) [Compound 130a] was less than 0.001 µM; that for `N#Cc1c(N)nc(N)nc1NC(CC(F)(F)F)c1nc2ccc(F)cc2c(=O)n1-c1ccccc1` (single isomer, unassigned) [Compound 132a] was more than 0.05 µM; that for `N#Cc1c(N)nc(N)nc1NC(CC(F)(F)F)c1nc2ccc(F)cc2c(=O)n1-c1cc(F)cc(F)c1` (single isomer, unassigned) [Compound 133a] was more than 0.05 µM.
Consider `CC(Nc1nc(N)nc(N)c1C#N)c1nc2cccc(F)c2c(=O)n1-c1cc(C(F)F)cc(C(F)F)c1` (single isomer, unassigned) [Compound 136a], for which the IC50 is more than 0.05 µM.
As to `CC(Nc1nc(N)nc(N)c1C#N)c1nc2cccc(C#N)c2c(=O)n1-c1cc(F)cc(C(F)F)c1` (single isomer, unassigned) [Compound 138a], the half-maximal inhibitory concentration (IC50) fell in the range of 0.01 to 0.05 µM.
As to `CC(Nc1nc(N)nc(N)c1C#N)c1nc2ccc(C#N)cc2c(=O)n1-c1ccccc1` (single isomer, unassigned) [Compound 159a], the IC50 was more than 0.05 µM.
`CC(Nc1nc(N)nc(N)c1C#N)c1nc2cccc(C(=O)O)c2c(=O)n1-c1ccccc1` (single isomer, unassigned) [Compound 162a, 2-(1-((2,6-diamino-5-cyanopyrimidin-4-yl)amino)ethyl)-4-oxo-3-phenyl-3,4-dihydroquinazoline-5-carboxylic acid]: the half-inhibitory concentration (IC50) is more than 0.05 µM.
With `N#Cc1c(N)nc(N)nc1NC(CC(F)(F)F)c1nc2cccc(Cl)c2c(=O)n1-c1cc(F)cc(F)c1` (single isomer, unassigned) [Compound 165a] the figure was more than 0.05 µM; with `N#Cc1c(N)nc(N)nc1NC(CC(F)(F)F)c1nc2cccc(F)c2c(=O)n1-c1cc(F)cc(F)c1` (single isomer, unassigned) [Compound 166a], more than 0.05 µM; with `Cc1c(-n2c(C(C)Nc3nc(N)nc(N)c3C#N)nc3cccc(Cl)c3c2=O)ccc(F)c1F` (single isomer, unassigned) [Compound 204a-1], 0.01 to 0.05 µM.
For the molecule `Cc1c(-n2c(C(C)Nc3nc(N)nc(N)c3C#N)nc3cccc(Cl)c3c2=O)ccc(F)c1F` (single isomer, unassigned) [Compound 204a-2], the IC50 was in the range of 0.001 to 0.01 µM.
Take `N#Cc1c(N)nc(N)nc1NCc1nc2cc(F)c(F)cc2c(=O)n1-c1cc(F)cc(F)c1` [Compound 80, 2,4-diamino-6-((3-(3,5-difluorophenyl)-6,7-difluoro-4-oxo-3,4-dihydroquinazolin-2-yl)methylamino)pyrimidine-5-carbonitrile]: the half-maximal inhibitory concentration (IC50) was more than 0.05 µM.
Regarding `N#Cc1cccc(-n2c(CNc3nc(N)nc(N)c3C#N)nc3c(Cl)cccc3c2=O)c1` [Compound 84, 2,4-diamino-6-((8-chloro-3-(3-cyanophenyl)-4-oxo-3,4-dihydroquinazolin-2-yl)methylamino)pyrimidine-5-carbonitrile], the IC50 is more than 0.05 µM.
